These results are taken from patent US20070088021A1, “4-haloisoquinoline derivative and drug containing the same” (priority 2005, published 2007).

Counter-ions that a name gives are not always drawn.

Test [1] concerns the target Rho kinase. To be noted: order of magnitude stated in background; cited from earlier work.
For test [2], the target named is T1, Rho kinase.
T1 construct: IC50 for Rho kinase
Put plainly: Rho-kinase assay (measurement of kinase inhibitory activity). It counts as biochemical. To be noted: method of Patent Document 1. On the procedure:
A Rho-kinase assay was performed according to the method described in Patent Document 1, and the 50% inhibitory concentration (hereinafter referred to as the “IC50 value”) for Rho kinase was calculated.

For `Cc1cncc2cccc(S(=O)(=O)N3CCCNC[C@@H]3C)c12.Cl` [(S)-(+)-hexahydro-2-methyl-1-(4-methyl-5-isoquinolinesulfonyl)-1H-1,4-diazepine hydrochloride], the “50% inhibitory concentration (IC50) for Rho kinase” value on Rho kinase [1] is recorded as 1/100.

For orientation: IC50 means the concentration that inhibits the measured activity by half. Consider `C[C@H]1CNCCCN1S(=O)(=O)c1cccc2cncc(Br)c12` [Dihydrochloride of Compound (1) X = Br, 2-(S)-1-(4-bromoisoquinoline-5-sulfonyl)-2-methylhomopiperazine], for which the half-inhibitory concentration (IC50) at Rho kinase [2] was determined as 0.0058 µM. That is a single-digit nanomolar value.

Compound `CC1CNCCCN1S(=O)(=O)c1cccc2cncc(Cl)c12` (centres unmarked) [Dihydrochloride of Compound (1) X = Cl] returned an IC50 at Rho kinase [2] of 0.0258 µM.

Take `C[C@H]1CNCCCN1S(=O)(=O)c1cccc2cncc(F)c12` [Dihydrochloride of Compound (1) X = F]: the midpoint of inhibition on Rho kinase [2], the IC50, lay at 0.085 µM.

`Cc1cncc2cccc(S(=O)(=O)N3CCCNC[C@@H]3C)c12` [Reference Compound B, (S)-(+)-hexahydro-2-methyl-1-(4-methyl-5-isoquinolinesulfonyl)-1H-1,4-diazepine hydrochloride, reference compound] gave an IC50 against Rho kinase [2] of 0.012 µM.
